The term DC50 denotes the concentration giving 50% degradation. The low end stands for a more potent degrader, the high end for a less potent degrader. The Dmax is the greatest extent of degradation seen. A lower Dmax goes with a partial loss of target.

Where only a bound is given, the exact number is not on record here.

For eight molecules, DC50 and Dmax results are on record in patent US20260317324A1, “BIFUNCTIONAL COMPOUNDS FOR DEGRADING BRAF VIA UBIQUITIN PROTEOSOME PATHWAY” (Nurix Therapeutics, Inc., priority 2023, published 2026).

Holding throughout (format): cell-based
For one assay, the target named is T1, BRAF G466V (Homo sapiens, UniProt P15056, G466V).
T1 construct: Horizon Discovery (HCT-116 BRAF−/− cells); host or cells: HCT-116 BRAF−/− cells, clone 8, lentiviral transduction
T1 sequence (P15056 whole entry G466V): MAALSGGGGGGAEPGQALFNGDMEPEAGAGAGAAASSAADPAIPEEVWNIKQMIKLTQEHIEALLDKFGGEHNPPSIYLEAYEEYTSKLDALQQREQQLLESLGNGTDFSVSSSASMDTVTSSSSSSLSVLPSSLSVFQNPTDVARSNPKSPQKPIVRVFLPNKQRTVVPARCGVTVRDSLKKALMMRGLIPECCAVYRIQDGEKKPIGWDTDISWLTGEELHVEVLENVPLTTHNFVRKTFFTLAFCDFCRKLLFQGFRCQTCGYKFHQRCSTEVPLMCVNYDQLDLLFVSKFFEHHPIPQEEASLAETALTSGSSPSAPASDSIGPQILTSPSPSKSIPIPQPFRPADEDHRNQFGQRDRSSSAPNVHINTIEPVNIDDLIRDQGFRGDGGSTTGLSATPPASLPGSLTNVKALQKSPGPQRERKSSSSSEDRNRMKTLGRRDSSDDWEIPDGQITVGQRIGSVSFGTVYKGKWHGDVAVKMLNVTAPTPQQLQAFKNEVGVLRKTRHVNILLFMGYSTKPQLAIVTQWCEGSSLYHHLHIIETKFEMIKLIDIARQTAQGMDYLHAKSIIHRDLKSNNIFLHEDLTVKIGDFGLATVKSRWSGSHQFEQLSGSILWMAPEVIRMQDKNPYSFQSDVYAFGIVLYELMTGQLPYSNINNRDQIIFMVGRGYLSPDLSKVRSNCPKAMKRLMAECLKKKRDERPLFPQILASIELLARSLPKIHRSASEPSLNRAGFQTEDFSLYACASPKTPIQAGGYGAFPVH
Briefly: BRAF HiBiT degradation assay, C-terminal HiBiT-tagged BRAF G466V overexpressed in HCT-116 BRAF−/− cells (clone 8), Nano-Glo HiBiT Lytic assay. The method in brief: (§1)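 First, the stable HiBiT-tagged cells were plated and incubated for 24 h. Next, compound was added in duplicate as an 11-point series with a 1 μM top concentration. Lytic detection followed, with DMSO-treated parental cells used for background. Finally, DC50 and Obs. Dmax relative to DMSO were derived from the % protein remaining curves.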
Background: The HiBiT peptide binds its large partner to form an active luciferase.

Another assay addresses T2, BRAF G469A (Homo sapiens, UniProt P15056, G469A).
T2 construct: Horizon Discovery (HCT-116 BRAF−/− cells); host or cells: HCT-116 BRAF−/− cells, clone 34, lentiviral transduction
Briefly: BRAF HiBiT degradation assay, C-terminal HiBiT-tagged BRAF G469A overexpressed in HCT-116 BRAF−/− cells (clone 34), Nano-Glo HiBiT Lytic assay. The method in brief: as §1

The target in the next assay is T3, BRAF V600E (Homo sapiens, UniProt P15056, V600E).
T3 construct: endogenous C-terminal HiBiT fusion tag on BRAF V600E allele; endogenous in cells; host or cells: A375 clone 1F10 (CRISPR-Cas9 knock-in of the HiBiT tag; parental A375 from ATCC)
T3 sequence (P15056 whole entry V600E, the tested form may be a part): as the sequence (P15056 whole entry G466V) above, with V466G, V600E counted along it
Kind of assay: BRAF HiBiT degradation assay, C-terminal HiBiT-tagged BRAF V600E A375 cells (clone 1F10), Nano-Glo HiBiT Lytic assay. To be noted: for Dmax: A-375. The method, boiled down:
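Degradation is measured as loss of HiBiT signal from BRAF V600E tagged at its native locus in A375 cells. Doses span 1 μM to 0.01 nM in half-log steps, in duplicate. Percent remaining is calculated against DMSO controls after subtracting untagged A375 background, and curve fitting yields DC50 and observed Dmax.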

The next assay concerns the target T4, BRAF D594G (Homo sapiens, UniProt P15056, D594G).
T4 construct: Horizon Discovery (HCT-116 BRAF−/− cells); host or cells: HCT-116 BRAF−/− cells, clone 63, lentiviral transduction
Kind of assay: BRAF HiBiT degradation assay, C-terminal HiBiT-tagged BRAF D594G overexpressed in HCT-116 BRAF−/− cells (clone 63), Nano-Glo HiBiT Lytic assay. The method in brief:
as §1

Where [1] appears, read: BRAF G466V (Class 3), HCT-116 BRAF−/− cells, DC50 at 50% degradation.
Where [2] appears, read: BRAF G466V (Class 3), HCT-116 BRAF−/− cells, observed Dmax relative to DMSO control.
Where [3] appears, read: BRAF G469A (Class 2), HCT-116 BRAF−/− cells, DC50 at 50% degradation.
Where [4] appears, read: BRAF G469A (Class 2), HCT-116 BRAF−/− cells, observed Dmax relative to DMSO control.
Setting [5] is: A375 (BRAF V600E, Class 1), DC50 at 50% degradation.
[6] abbreviates: A375 (BRAF V600E, Class 1), observed Dmax, % protein degraded relative to DMSO control.
Setting [7] is: BRAF D594G (Class 3), HCT-116 BRAF−/− cells, DC50 at 50% degradation.
Setting [8] is: BRAF D594G (Class 3), HCT-116 BRAF−/− cells, observed Dmax relative to DMSO control.
Setting [9] is: BRAF G466V, DC50 at 50%: fitted conc. at Y=50.
The mark [10] stands for this setting: HCT-116, BRAF G466V, percentage protein degraded at maximal compound effect relative to DMSO.
Where [11] appears, read: Class 2, BRAF G469A, DC50 at 50%: fitted conc. at Y=50.
Where [12] appears, read: HCT-116, Class 2, BRAF G469A, percentage protein degraded at maximal compound effect relative to DMSO.
The mark [13] stands for this setting: A375 (BRAF V600E), DC50 at 50%: fitted conc. at Y=50.
Setting [14] is: A375 (BRAF V600E), percentage protein degraded at maximal compound effect relative to DMSO.
Setting [15] is: BRAF D594G, DC50 at 50%: fitted conc. at Y=50.
The mark [16] stands for this setting: HCT-116, BRAF D594G, percentage protein degraded at maximal compound effect relative to DMSO.

T2 sequence (P15056 whole entry G469A): as the sequence (P15056 whole entry G466V) above, with V466G, G469A counted along it
T4 sequence (P15056 whole entry D594G): as the sequence (P15056 whole entry G466V) above, with V466G, D594G counted along it

Consider `O=C1CCN(c2ccc(N3CCC(CN4CCN(c5ccc(-n6cc(-c7cc(Cl)cc(NS(=O)(=O)N8CC[C@@H](F)C8)c7F)c(-c7ccncc7)n6)cc5)CC4)CC3)cc2)C(=O)N1` [Compound 292, (3R)—N-[5-chloro-3-(1-{4-[4-({1-[4-(2,4-dioxo-1,3-diazinan-1-yl)phenyl]piperidin-4-yl}methyl)piperazin-1-yl]phenyl}-3-(pyridin-4-yl)-1H-pyrazol-4-yl)-2-fluorophenyl]-3-fluoropyrrolidine-1-sulfonamide], for which the DC50 at BRAF G466V (setting [1]) was under 10 nM; on BRAF G469A (setting [3]) it was 50 to 500 nM; at BRAF V600E (setting [5]), under 10 nM; at BRAF D594G (setting [7]) it was under 10 nM. In addition, the Dmax at BRAF G466V (setting [2]) was 30 to 70%; on BRAF G469A (setting [4]) it was 30 to 70%; at BRAF V600E (setting [6]) it was over 70%; at BRAF D594G (setting [8]), 30 to 70%.

In the case of `O=C1CCC(c2ccc(N3CCC(CN4CCN(c5ccc(-n6cc(-c7cc(Cl)cc(NS(=O)(=O)N8CC[C@@H](F)C8)c7F)c(-c7ccncc7)n6)cc5F)CC4)CC3)nc2)C(=O)N1` (mixture of isomers) [Compound 366, (3R)—N-{5-chloro-3-[1-(4-{4-[(1-{5-[(3RS)-2,6-dioxopiperidin-3-yl]pyridin-2-yl}piperidin-4-yl)methyl]piperazin-1-yl}-3-fluorophenyl)-3-(pyridin-4-yl)-1H-pyrazol-4-yl]-2-fluorophenyl}-3-fluoropyrrolidine-1-sulfonamide], the 50% degradation concentration (DC50) on BRAF G466V (setting [1]), on BRAF G469A (setting [3]), on BRAF V600E (setting [5]) and on BRAF D594G (setting [7]) was under 10 nM throughout. The Dmax on BRAF G466V (setting [2]), at BRAF G469A (setting [4]), on BRAF V600E (setting [6]) and at BRAF D594G (setting [8]) was over 70% throughout.

With `CCCS(=O)(=O)Nc1cccc(-c2cn(C3CCN(C(=O)C4CCN(C(=O)C5CCN(c6ccc(C7CCC(=O)NC7=O)cn6)CC5)CC4)CC3)nc2-c2ccncc2)c1F` (racemic) [Compound 7, Rac-N-[3-(1-{1-[1-(1-{5-[(3R)-2,6-dioxopiperidin-3-yl]pyridin-2-yl}piperidine-4-carbonyl)piperidine-4-carbonyl]piperidin-4-yl}-3-(pyridin-4-yl)-1H-pyrazol-4-yl)-2-fluorophenyl]propane-1-sulfonamide], the DC50 at BRAF G466V (setting [9]) was 50 to 500 nM; at BRAF G469A (setting [11]), over 500 nM; at BRAF V600E (setting [13]), 10 to 50 nM; at BRAF D594G (setting [15]), over 500 nM. The Dmax at BRAF G466V (setting [10]) was 30 to 70%; on BRAF G469A (setting [12]), 30 to 70%; on BRAF V600E (setting [14]), over 70%; on BRAF D594G (setting [16]), 30 to 70%.

Take `C[C@@H]1CN(c2ccc(-n3cc(-c4cc(Cl)cc(NS(=O)(=O)N5CCCC5)c4F)c(-c4ccncc4)n3)c(F)c2)C[C@@H](C)N1CC1CCN(c2ccc(C3CCC(=O)NC3=O)cn2)CC1` (mixture of isomers) [Compound 382, N-(5-chloro-3-(1-(4-((3R,5R)-4-((1-(5-((RS)-2,6-dioxopiperidin-3-yl)pyridin-2-yl)piperidin-4-yl)methyl)-3,5-dimethylpiperazin-1-yl)-2-fluorophenyl)-3-(pyridin-4-yl)-1H-pyrazol-4-yl)-2-fluorophenyl)pyrrolidine-1-sulfonamide]: the DC50 on BRAF G466V (setting [1]) was under 10 nM; at BRAF G469A (setting [3]), 10 to 50 nM; on BRAF V600E (setting [5]) it was under 10 nM; on BRAF D594G (setting [7]), under 10 nM. Besides, the Dmax on BRAF G466V (setting [2]), on BRAF G469A (setting [4]), at BRAF V600E (setting [6]) and at BRAF D594G (setting [8]) was over 70% throughout.

On to `CCCS(=O)(=O)Nc1cccc(-c2nc(C(C)(C)C)sc2-c2ccnc(NCC3CCN(CC4CCN(c5ccc(C(=O)N[C@H]6CCC(=O)NC6=O)nc5)CC4)CC3)n2)c1F` [Compound 147, 5-{4-[(4-{[(4-{2-tert-butyl-4-[2-fluoro-3-(propane-1-sulfonamido)phenyl]-1,3-thiazol-5-yl}pyrimidin-2-yl)amino]methyl}piperidin-1-yl)methyl]piperidin-1-yl}-N-[(3S)-2,6-dioxopiperidin-3-yl]pyridine-2-carboxamide], for which the DC50 was over 500 nM on BRAF G466V (setting [9]), over 500 nM at BRAF G469A (setting [11]), 50 to 500 nM on BRAF V600E (setting [13]) and over 500 nM at BRAF D594G (setting [15]). Besides, the Dmax on BRAF G466V (setting [10]) is under 30%; at BRAF G469A (setting [12]) it was under 30%; on BRAF V600E (setting [14]) it was 30 to 70%; at BRAF D594G (setting [16]), under 30%.

As to `CCCS(=O)(=O)Nc1cccc(-c2nc(C3CCN(C(=O)C4CCN(CC5CCN(c6ccc([C@H]7CCC(=O)NC7=O)cc6)CC5)CC4)CC3)sc2-c2ccnc(NC)n2)c1F` [Compound 204, N-{3-[2-(1-{1-[(1-{4-[(3R)-2,6-dioxopiperidin-3-yl]phenyl}piperidin-4-yl)methyl]piperidine-4-carbonyl}piperidin-4-yl)-5-[2-(methylamino)pyrimidin-4-yl]-1,3-thiazol-4-yl]-2-fluorophenyl}propane-1-sulfonamide], the DC50 was over 500 nM on BRAF G466V (setting [9]), over 500 nM on BRAF G469A (setting [11]), under 10 nM on BRAF V600E (setting [13]) and over 500 nM on BRAF D594G (setting [15]). Also, the Dmax at BRAF G466V (setting [10]) was 30 to 70%; on BRAF G469A (setting [12]) it was 30 to 70%; on BRAF V600E (setting [14]), over 70%; on BRAF D594G (setting [16]), 30 to 70%.

With `CCN(C)S(=O)(=O)Nc1cccc(-c2nc(C(C)(C)C)sc2-c2ccnc(Nc3ccc(N4CCN(C(=O)C5CCN(c6ccc(C7CCC(=O)NC7=O)cn6)CC5)CC4)cn3)n2)c1F` (racemic) [Compound 56, Rac-(3R)-3-[6-(4-{4-[6-({4-[2-tert-butyl-4-(3-{[ethyl(methyl)sulfamoyl]amino}-2-fluorophenyl)-1,3-thiazol-5-yl]pyrimidin-2-yl}amino)pyridin-3-yl]piperazine-1-carbonyl}piperidin-1-yl)pyridin-3-yl]piperidine-2,6-dione], the DC50 was under 10 nM on BRAF G466V (setting [9]), 10 to 50 nM at BRAF G469A (setting [11]), under 10 nM on BRAF V600E (setting [13]) and under 10 nM on BRAF D594G (setting [15]). In addition, the Dmax at BRAF G466V (setting [10]) is 30 to 70%; on BRAF G469A (setting [12]) it was 30 to 70%; at BRAF V600E (setting [14]), over 70%; at BRAF D594G (setting [16]), 30 to 70%.

For `CCCS(=O)(=O)Nc1cccc(-c2nc(C)sc2-c2ccnc(Nc3ccc(C4CCN(C(=O)CC5CCN(c6ccc(NC7CCC(=O)NC7=O)cc6)CC5)CC4)cc3)n2)c1F` (racemic) [Compound 44, Rac-N-{3-[5-(2-{[4-(1-{2-[1-(4-{[(3R)-2,6-dioxopiperidin-3-yl]amino}phenyl)piperidin-4-yl]acetyl}piperidin-4-yl)phenyl]amino}pyrimidin-4-yl)-2-methyl-1,3-thiazol-4-yl]-2-fluorophenyl}propane-1-sulfonamide], the DC50 on BRAF G466V (setting [9]) is over 500 nM; on BRAF G469A (setting [11]) it was over 500 nM; on BRAF V600E (setting [13]) it was under 10 nM; on BRAF D594G (setting [15]), over 500 nM. For the same molecule, the Dmax on BRAF G466V (setting [10]) is under 30%; on BRAF G469A (setting [12]) it was under 30%; on BRAF V600E (setting [14]), over 70%; on BRAF D594G (setting [16]), under 30%.
